Columns and labels:
[1] = tested on: KRAS G12D mutant human gastric cancer cell AGS; test: 3D cell proliferation inhibition assay, AGS; format: cell-based; conditions: 168 h, 7 days, CTG
Procedure, shortened: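 IC50 values derive from nonlinear fits of log dose against percent inhibition of 7-day 3D proliferation. Readout: CTG luminescence. Plating density: 5×10^2 cells/well in low-adsorption plates. Dosing: 10000–0.026 nM final, 0.2% DMSO.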

KRAS-G12D = target: T1, KRAS-G12D (Homo sapiens, UniProt P01116, G12D); test: KRAS-G12D degradation assay (Western Blot), A-427 cells; format: cell-based; conditions: A427 cells, 24 h; for Dmax: A-427
T1 construct: endogenous in cells; host or cells: A-427 (ATCC), AGS, AsPc-1, Panc 04.03
T1 sequence (P01116 1-188 isoform P01116-2 G12D): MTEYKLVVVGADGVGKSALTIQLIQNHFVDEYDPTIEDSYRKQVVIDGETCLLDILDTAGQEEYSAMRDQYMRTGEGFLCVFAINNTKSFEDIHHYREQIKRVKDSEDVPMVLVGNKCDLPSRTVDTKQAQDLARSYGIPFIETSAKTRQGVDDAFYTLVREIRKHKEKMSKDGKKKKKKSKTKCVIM
Procedure, shortened: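 Each KRAS G12D mutant line (A-427, AGS, AsPc-1, Panc 04.03) was seeded at 5×10^5 cells/well and treated 24 h at 37 °C with 0.03–3000 nM compound (final DMSO 0.25%). KRAS in lysates was measured by Western blot, normalized to β-actin and compared with controls, giving DC50 and Dmax from curve fits.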

SMILES: C#Cc1c(F)ccc2cc(O)cc(-c3ncc4c(N5CC6CCC(C5)N6)nc(OCC(C)CN5CCN(CC6CCC7(CC6)CCN(C(=O)c6ccc(OC)c(N8CCC(=O)NC8=O)c6)CC7)CC5)nc4c3F)c12 (stereo not drawn) [Example 84, 1-(5-(9-((4-(3-((4-(3,8-diazabicyclo[3.2.1]octan-3-yl)-7-(8-ethynyl-7-fluoro-3-hydroxynaphthalen-1-yl)-8-fluoropyrido[4,3-d]pyrimidin-2-yl)oxy)-2-methylpropyl)piperazin-1-yl)methyl)-3-azaspiro[5.5]undecane-3-carbonyl)-2-methoxyphenyl)dihydropyrimidine-2,4(1H,3H)-dione]
- IC50 ([1]; numeric values): 1.05 nM
- DC50 (KRAS-G12D; numeric values): 4.67 nM
- Dmax (KRAS-G12D; numeric values): 86.3%

SMILES: CCc1c(F)ccc2cc(O)cc(-c3ncc4c(N5CC6CCC(C5)N6)nc(OCC5(CN6CCN(CCCC7CCN(C(=O)c8ccc(Cl)c(N9CCC(=O)NC9=O)c8)CC7)CC6)CC5)nc4c3F)c12 [Example 22, 1-(5-(4-(3-(4-((1-(((4-(3,8-diazabicyclo[3.2.1]octan-3-yl)-7-(8-ethyl-7-fluoro-3-hydroxynaphthalen-1-yl)-8-fluoropyrido[4,3-d]pyrimidin-2-yl)oxy)methyl)cyclopropyl)methyl)piperazin-1-yl)propyl)piperidine-1-carbonyl)-2-chlorophenyl)dihydropyrimidine-2,4(1H,3H)-dione]
- IC50 ([1]; class symbols): ≤ 50 nM
- DC50 (KRAS-G12D; class symbols): ≤ 50 nM
- Dmax (KRAS-G12D; class symbols): 50 to 80%

SMILES: C#Cc1c(F)ccc2cc(O)cc(-c3ncc4c(N5CC6CCC(C5)N6)nc(OCC5(CN6CCN(CCCC7CCC8(CC7)CCN(C(=O)c7ccc(Cl)c(N9CCC(=O)NC9=O)c7)CC8)CC6)CC5)nc4c3F)c12 [Example 7, 1-(5-(9-(3-(4-((1-(((4-(3,8-diazabicyclo[3.2.1]octan-3-yl)-7-(8-ethynyl-7-fluoro-3-hydroxynaphthalen-1-yl)-8-fluoropyrido[4,3-d]pyrimidin-2-yl)oxy)methyl)cyclopropyl)methyl)piperazin-1-yl)propyl)-3-azaspiro[5.5]undecane-3-carbonyl)-2-chlorophenyl)dihydropyrimidine-2,4(1H,3H)-dione]
- IC50 ([1]; class symbols): ≤ 50 nM
- DC50 (KRAS-G12D; class symbols): ≤ 50 nM
- Dmax (KRAS-G12D; class symbols): 80 to 100%

SMILES: C#Cc1c(F)ccc2cc(O)cc(-c3ncc4c(N5CC6CCC(C5)N6)nc(OCC5(CN6CCN(CCC7CCC8(CC7)CCN(C(=O)c7ccc(Cl)c(N9CCC(=O)NC9=O)c7)CC8)CC6)CC5)nc4c3F)c12 [Example 18, 1-(5-(9-(2-(4-((1-(((4-(3,8-diazabicyclo[3.2.1]octan-3-yl)-7-(8-ethynyl-7-fluoro-3-hydroxynaphthalen-1-yl)-8-fluoropyrido[4,3-d]pyrimidin-2-yl)oxy)methyl)cyclopropyl)methyl)piperazin-1-yl)ethyl)-3-azaspiro[5.5]undecane-3-carbonyl)-2-chlorophenyl)dihydropyrimidine-2,4(1H,3H)-dione]
- IC50 ([1]; class symbols): ≤ 50 nM
- DC50 (KRAS-G12D; class symbols): ≤ 50 nM
- Dmax (KRAS-G12D; class symbols): 80 to 100%

SMILES: Cc1ccc2[nH]ncc2c1-c1ncc2c(N3CC4CCC(C3)N4)nc(OCC3(CN4CCN(CC5CCC6(CC5)CCN(C(=O)c5ccc(Cl)c(N7CCC(=O)NC7=O)c5)CC6)CC4)CC3)nc2c1F [Example 16, 1-(5-(9-((4-((1-(((4-(3,8-diazabicyclo[3.2.1]octan-3-yl)-8-fluoro-7-(5-methyl-1H-indazol-4-yl)pyrido[4,3-d]pyrimidin-2-yl)oxy)methyl)cyclopropyl)methyl)piperazin-1-yl)methyl)-3-azaspiro[5.5]undecane-3-carbonyl)-2-chlorophenyl)dihydropyrimidine-2,4(1H,3H)-dione]
- IC50 ([1]; class symbols): 1000 to 10000 nM
- DC50 (KRAS-G12D; class symbols): 1000 to 10000 nM
- Dmax (KRAS-G12D; class symbols): 30 to 50%

SMILES: C#Cc1c(F)ccc2cc(O)cc(-c3ncc4c(N5CC6CCC(C5)N6)nc(OCC5(CN6CCN(CCCC7CCN(C(=O)c8ccc(Cl)c(N9CCC(=O)NC9=O)c8)CC7)CC6)CC5)nc4c3F)c12 [Example 4, 1-(5-(4-(3-(4-((1-(((4-(3,8-diazabicyclo[3.2.1]octan-3-yl)-7-(8-ethynyl-7-fluoro-3-hydroxynaphthalen-1-yl)-8-fluoropyrido[4,3-d]pyrimidin-2-yl)oxy)methyl)cyclopropyl)methyl)piperazin-1-yl)propyl)piperidine-1-carbonyl)-2-chlorophenyl)dihydropyrimidine-2,4(1H,3H)-dione]
- IC50 ([1]; class symbols): 50 to 100 nM
- DC50 (KRAS-G12D; class symbols): ≤ 50 nM
- Dmax (KRAS-G12D; class symbols): 80 to 100%
